Test results: patent US6784137B2, “6-aryl-4-aminopicolinates and their use as herbicides” (Dow AgroSciences LLC, priority 2001, dated 2004)

How the values were obtained:
[1] = system: Pigweed (redroot) (Amaranthus retroflexus); test: Postemergence herbicidal activity, greenhouse spray; type: in vivo; conditions: Amaranthus retroflexus, post-emergence, 336 h; Table 3; rate 62.5 (unit inferred); visual score after 2 weeks; read-out: Post-emergent % control AMARE
Summary of the method: (§1)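 Foliar spray at 1st-2nd true leaf; carrier: acetone/water/IPA/DMSO/crop oil concentrate/Triton X-155 (48.5:39:10:1.5:1.0:0.02). Serial dilutions from acetone:DMSO stock. Greenhouse ~15 h light, 23-29° C day. Sub-irrigated post-treatment. Carrier-sprayed controls.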

[2] = system: Lambsquarter (Chenopodium album); test: as above; type: in vivo; conditions: Chenopodium album, post-emergence, 336 h, visual score after 2 weeks, read-out: Post-emergent % control CHEAL; for pest or weed control at 250 ppm / pest or weed control at 500 ppm: Table 1; for pest or weed control at 250 ppm: rate 250 ppm; for pest or weed control at 500 ppm: rate 500 ppm; for pest or weed control at 125 ppm: Table 2, rate 125 ppm
Summary of the method: as §1

[3] = system: Barnyardgrass (Echinochloa crus-galli); test: as above; type: in vivo; conditions: Echinochloa crus-galli, post-emergence, 336 h, visual score after 2 weeks, read-out: Post-emergent % control ECHCG; for pest or weed control at 250 ppm / pest or weed control at 500 ppm: Table 1; for pest or weed control at 250 ppm: rate 250 ppm; for pest or weed control at 500 ppm: rate 500 ppm; for pest or weed control at 125 ppm: Table 2, rate 125 ppm
Summary of the method: as §1

[4] = system: Cocklebur (Xanthium strumarium); test: as above; type: in vivo; conditions: Xanthium strumarium, post-emergence, 336 h, visual score after 2 weeks, read-out: Post-emergent % control XANST; for pest or weed control at 250 ppm / pest or weed control at 500 ppm: Table 1; for pest or weed control at 250 ppm: rate 250 ppm; for pest or weed control at 500 ppm: rate 500 ppm, 0 no injury, 100 complete kill; for pest or weed control at 125 ppm: Table 2, rate 125 ppm
Summary of the method: as §1

[5] = system: Yellow nutsedge (Cyperus esculentus); test: as above; type: in vivo; conditions: Cyperus, post-emergence, 336 h, visual score after 2 weeks, read-out: Post-emergent % control CYPES; for pest or weed control at 250 ppm / pest or weed control at 500 ppm: Table 1; for pest or weed control at 250 ppm: rate 250 ppm; for pest or weed control at 500 ppm: rate 500 ppm; for pest or weed control at 125 ppm: Table 2, rate 125 ppm
Summary of the method: as §1

[6] = system: Pigweed (redroot) (Amaranthus retroflexus); test: Preemergence herbicidal activity, soil spray; type: in vivo; conditions: Amaranthus retroflexus, pre-emergence, 504 h, Table 5, visual score after 3 weeks, read-out: Pre-emergent % control AMARE; for pest or weed control at 560 ppm: rate 560 ppm; for pest or weed control at 140 ppm: rate 140 ppm
Summary of the method: (§2)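 Preemergence soil application onto freshly seeded pots. Carrier: 99.9:0.1 water:Tween 155 after acetone/DMSO solubilisation. Greenhouse, ~15 hr photoperiod, supplemental metal halide lighting, regular nutrients and top watering.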

[7] = system: Lambsquarter (Chenopodium album); test: Preemergence herbicidal activity, soil spray; type: in vivo; conditions: Chenopodium album, pre-emergence, 504 h, Table 5, visual score after 3 weeks, read-out: Pre-emergent % control CHEAL; for pest or weed control at 560 ppm: rate 560 ppm, 100 complete kill or no germination; for pest or weed control at 140 ppm: rate 140 ppm
Summary of the method: as §2

[8] = system: Crabgrass(large) (Digitaria sanguinalis); test: Preemergence herbicidal activity, soil spray; type: in vivo; conditions: Digitaria sanguinalis, pre-emergence, 504 h, Table 5, visual score after 3 weeks, read-out: Pre-emergent % control DIGSA; for pest or weed control at 560 ppm: rate 560 ppm; for pest or weed control at 140 ppm: rate 140 ppm
Summary of the method: as §2

[9] = system: Giant Foxtail (Setaria faberi); test: Preemergence herbicidal activity, soil spray; type: in vivo; conditions: Setaria faberi, pre-emergence, 504 h, Table 5, visual score after 3 weeks, read-out: Pre-emergent % control SETFA; for pest or weed control at 560 ppm: rate 560 ppm; for pest or weed control at 140 ppm: rate 140 ppm
Summary of the method: as §2

[10] = system: Wheat(var. Merica) (Triticum aestivum); test: Postemergence herbicidal activity, selectivity to wheat; type: in vivo; conditions: post-emergence, 336 h, Table 3, rate 62.5 (unit inferred), crop injury, read-out: Post-emergent % control TRZAS
Method: Seeds of the desired test plant species were planted in Grace-Sierra MetroMix® 306 planting mixture, which typically has a pH of 6.0 to 6.8 and an organic matter content of about 30 percent, in plastic pots with a surface area of 64 square centimeters. When required to ensure good germination and healthy plants, a fungicide treatment and/or other chemical or physical treatment was applied. The plants were grown for 7-21 days in a greenhouse with an approximate 15 hr photoperiod which was maintained at about 23-29° C. during the day and 22-28° C. during the night. Nutrients and water were added on a regular basis and supplemental lighting was provided with overhead metal halide 1000-Watt lamps as necessary. The plants were employed for testing when they reached the first or second true leaf stage. A weighed amount, determined by the highest rate to be tested, of each test compound was placed in a 20 mL glass vial and was dissolved in 4 mL of a 97:3 v/v (volume/volume) mixture of acetone and dimethyl sulfoxide (DMSO) to obtain concentrated stock solutions. […] The concentrated stock solutions obtained were diluted with an aqueous mixture containing acetone, water, isopropyl alcohol, DMSO, At plus 411 F crop oil concentrate, and Triton X-155 surfactant in a 48.5:39:10:1.5:1.0:0.02 v/v ratio to obtain spray solutions of known concentration. The solutions containing the highest concentration to be tested were prepared by diluting 2 mL aliquots of the stock solution with 13 mL of the mixture and lower concentrations were prepared by serial dilution of the stock solution. Approximately 1.5 mL aliquots of each solution of known concentration were sprayed evenly onto each of the test plant pots using a DeVilbiss atomizer driven by compressed air pressure of […] (140 to 280 kiloPascals) to obtain thorough coverage of each plant. Control plants were sprayed in the same manner with the aqueous mixture. In this test an application rate of 1 ppm results in the application of approximately 1 g/Ha. The treated plants and control plants were placed in a greenhouse as described above and watered by sub-irrigation to prevent wash-off of the test compounds. After 2 weeks the condition of the test plants as compared with that of the untreated plants was determined visually and scored on a scale of 0 to 100 percent where 0 corresponds to no injury and 100 corresponds to complete kill.

In the case of `COC(=O)c1nc(-c2ccc(C)cc2)cc(N)c1Cl` [Compound 20, Methyl 4-amino-3-chloro-6-(4-methylphenyl)pyridine-2-carboxylate], the pest or weed control at 62.5 µg/mL [1] is reported as 100%, the pest or weed control at 250 ppm [2] is reported as 100% and the pest or weed control at 250 ppm [3] is reported as 70%. It also gave a pest or weed control at 250 ppm [4] of 100%, a pest or weed control at 250 ppm [5] of 50% and a pest or weed control at 560 ppm [6] of 100%. For the same molecule, the pest or weed control at 560 ppm [7] was 100%, the pest or weed control at 560 ppm [8] was 100% and the pest or weed control at 560 ppm [9] was 100%. It also gave a melting point of 111 to 113 °C and a pest or weed control at 62.5 µg/mL [10] of 10%.

For `COC(=O)c1nc(-c2ccc3c(c2)OCO3)cc(N)c1Cl` [Compound 29, Methyl 4-amino-3-chloro-6-(3,4-methylenedioxyphenyl)pyridine-2-carboxylate], the pest or weed control at 62.5 µg/mL [1] was 90%, the pest or weed control at 500 ppm [2] was 100% and the pest or weed control at 500 ppm [3] was 95%. For the same molecule, the pest or weed control at 500 ppm [4] was 100%, the pest or weed control at 500 ppm [5] was 80% and the pest or weed control at 560 ppm [6] was 95%. For the same molecule, the pest or weed control at 560 ppm [7] was 100%, the pest or weed control at 560 ppm [8] was 100% and the pest or weed control at 560 ppm [9] was 90%. For the same molecule, the melting point was 184 °C and the pest or weed control at 62.5 µg/mL [10] was 10%.

In the case of `COC(=O)c1nc(-c2ccc(Cl)cc2F)cc(NC(C)=O)c1Cl` [Compound 52, Methyl 4-acetamido-3-chloro-6-(4-chloro-2-fluorophenyl)pyridine-2-carboxylate], the pest or weed control at 62.5 µg/mL [1] is reported as 70%, the pest or weed control at 500 ppm [2] is reported as 100% and the pest or weed control at 500 ppm [3] is reported as 90%. For the same molecule, the pest or weed control at 500 ppm [4] was 100%, the pest or weed control at 500 ppm [5] was 40% and the pest or weed control at 140 ppm [6] was 100%. It also gave a pest or weed control at 140 ppm [7] of 100%, a pest or weed control at 140 ppm [8] of 100% and a pest or weed control at 140 ppm [9] of 95%. The melting point was 134 to 135 °C and the pest or weed control at 62.5 µg/mL [10] was 10%.

Molecule `Cc1ccc(-c2cc(N)c(Cl)c(C(=O)O)n2)cc1C` [Compound 132, 4-amino-3-chloro-6-(3,4-dimethylphenyl)pyridine-2-carboxylic acid] has a pest or weed control at 62.5 µg/mL [1] of 70%, a pest or weed control at 500 ppm [2] of 90% and a pest or weed control at 500 ppm [3] of 80%. It also gave a pest or weed control at 500 ppm [4] of 100%, a pest or weed control at 500 ppm [5] of 0% and a pest or weed control at 140 ppm [6] of 90%. The pest or weed control at 140 ppm [7] was 100%, the pest or weed control at 140 ppm [8] was 100% and the pest or weed control at 140 ppm [9] was 95%. It also gave a melting point of 192 to 194 °C and a pest or weed control at 62.5 µg/mL [10] of 0%.

`Cc1ccc(-c2cc(N)c(Cl)c(C(=O)O)n2)cc1` [Compound 136, 4-Amino-3-chloro-6-(4-methylphenyl)pyridine-2-carboxylic acid] gave a pest or weed control at 62.5 µg/mL [1] of 100%, a pest or weed control at 250 ppm [2] of 100% and a pest or weed control at 125 ppm [2] of 100%. It also gave a pest or weed control at 250 ppm [3] of 70%, a pest or weed control at 125 ppm [3] of 70% and a pest or weed control at 250 ppm [4] of 100%. It also gave a pest or weed control at 125 ppm [4] of 100%, a pest or weed control at 250 ppm [5] of 80% and a pest or weed control at 125 ppm [5] of 70%. For the same molecule, the pest or weed control at 560 ppm [6] was 100%, the pest or weed control at 560 ppm [7] was 100% and the pest or weed control at 560 ppm [8] was 100%. It also gave a pest or weed control at 560 ppm [9] of 100%, a melting point of 166 to 167 °C and a pest or weed control at 62.5 µg/mL [10] of 0%.

In the case of `Nc1cc(-c2ccc3c(c2)OCO3)nc(C(=O)O)c1Cl` [Compound 153, 4-Amino-3-chloro-6-(3,4-methylenedioxyphenyl)pyridine-2-carboxylic acid], the pest or weed control at 62.5 µg/mL [1] is reported as 100%, the pest or weed control at 500 ppm [2] is reported as 98% and the pest or weed control at 500 ppm [3] is reported as 95%. For the same molecule, the pest or weed control at 500 ppm [4] was 100%, the pest or weed control at 500 ppm [5] was 70% and the pest or weed control at 560 ppm [6] was 100%. For the same molecule, the pest or weed control at 560 ppm [7] was 100%, the pest or weed control at 560 ppm [8] was 100% and the pest or weed control at 560 ppm [9] was 100%. It also gave a melting point of 182 °C and a pest or weed control at 62.5 µg/mL [10] of 10%.

For `Nc1c(Cl)c(C(=O)O)nc(-c2ccc(Cl)cc2)c1Cl` [Compound 198, 4-Amino-3,5-dichloro-6-(4-chlorophenyl)pyridine-2-carboxylic acid], the pest or weed control at 500 ppm [2] was 100%, the pest or weed control at 125 ppm [2] was 100% and the pest or weed control at 500 ppm [3] was 90%. The pest or weed control at 125 ppm [3] was 70%, the pest or weed control at 500 ppm [4] was 100% and the pest or weed control at 125 ppm [4] was 100%. The pest or weed control at 500 ppm [5] was 90%, the pest or weed control at 125 ppm [5] was 98% and the pest or weed control at 560 ppm [6] was 100%. The pest or weed control at 560 ppm [7] was 100%, the pest or weed control at 560 ppm [8] was 80% and the pest or weed control at 560 ppm [9] was 90%. For the same molecule, the melting point was 164 to 165 °C.

In the case of `Nc1c(F)c(C(=O)O)nc(-c2ccccc2Cl)c1F` [Compound 202, 4-Amino-3,5-difluoro-6-(6-chlorophenyl)pyridine-2-carboxylic acid], the pest or weed control at 500 ppm [2] is reported as 100%, the pest or weed control at 125 ppm [2] is reported as 100% and the pest or weed control at 500 ppm [3] is reported as 100%. It also gave a pest or weed control at 125 ppm [3] of 70%, a pest or weed control at 500 ppm [4] of 100% and a pest or weed control at 125 ppm [4] of 100%. It also gave a pest or weed control at 500 ppm [5] of 95%, a pest or weed control at 125 ppm [5] of 80% and a pest or weed control at 140 ppm [6] of 100%. The pest or weed control at 140 ppm [7] was 95%, the pest or weed control at 140 ppm [8] was 100% and the pest or weed control at 140 ppm [9] was 95%. For the same molecule, the melting point was 166 to 167 °C (dec.).

Work on `Cc1ccc(-c2nc(C(=O)O)c(F)c(N)c2F)cc1` [Compound 203, 4-Amino-3,5-difluoro-6-(4-methylphenyl)pyridine-2-carboxylic acid] yielded a pest or weed control at 500 ppm [2] of 100%, a pest or weed control at 500 ppm [3] of 95% and a pest or weed control at 500 ppm [4] of 100%. The pest or weed control at 500 ppm [5] was 95%, the pest or weed control at 140 ppm [6] was 100% and the pest or weed control at 140 ppm [7] was 95%. It also gave a pest or weed control at 140 ppm [8] of 100%, a pest or weed control at 140 ppm [9] of 85% and a melting point of 144 to 145 °C.
